We go through 22 molecules from patent US8012975B2, “Antitumoral analogs of ET-743” (Pharma Mar, S.A., priority 2000, dated 2011).

The nature of one data set: in vitro. The settings on record: African green monkey.
Data set [1] concerns A-549. Briefly: Cytotoxic activity IC50, A-549. The settings on record: Homo sapiens, A549, read-out: CYTOTOXIC ACTIVITIY IC50 (μM) A-549, A-549.
Data set [2] relates to HT-29. Put plainly: Cytotoxic activity IC50, HT-29. The settings on record: Homo sapiens, HT-29, read-out: CYTOTOXIC ACTIVITIY IC50 (μM) HT-29, HT-29.
The test system of data set [3] is P-388. Put plainly: Cytotoxic activity IC50, P-388. The settings on record: Mus musculus, P388, read-out: CYTOTOXIC ACTIVITIY IC50 (μM) P-388.
Data set [4] has as its system MEL-28. Briefly: Cytotoxic activity IC50, MEL-28. The conditions noted are these: Homo sapiens, SK-MEL-28, read-out: CYTOTOXIC ACTIVITIY IC50 (μM) MEL-28, MEL-28.
Data set [5] has as its system DU-145. Briefly: Cytotoxic activity IC50, DU-145. The conditions noted are these: Homo sapiens, DU-145, read-out: CYTOTOXIC ACTIVITIY IC50 (μM) DU-145, DU-145.
Data set [6] relates to HT-29.
In data set [7] the test system is A-549.
Data set [8] deals with MEL-28.
The subject of data set [9] is P-388.
The test system of data set [10] is DU-145.

Molecules are shown by their SMILES. pIC50: −log10 of the molar value. Read-outs that look alike come from different tables or passages of the source.

The term pIC50 denotes the negative decadic logarithm of the IC50, by convention in mol/L. With `COC1=C(C)C(=O)C2=C(C1=O)[C@H](CNC(=O)C(C)N)N1C(C2)[C@H]2c3c(cc(C)c(OC)c3O)C[C@@H]([C@@H]1C#N)N2C` (stereo partly drawn), the pIC50 in “in vitro” is 7.64.
What is called IC50 is the concentration that gives 50% inhibition. Regarding `C=CCOc1c(C)c2c(c3c1CC1[C@H]4c5c(cc(C)c(OC)c5O)C[C@@H]([C@H](C#N)N1[C@H]3CNC(=O)OCC(Cl)(Cl)Cl)N4C)OCO2` (stereo partly drawn), the IC50 in the data set with A-549 [1], in the data set on HT-29 [2], with P-388 [3] and in the data set on MEL-28 [4] was 0.014 µM each time. Further, the pIC50 in the data set “in vitro” is 7.85.
Turning to `C=CCOc1c(C)c2c(c3c1CC1[C@H]4c5c(cc(C)c(OC)c5OCOC)C[C@@H]([C@H](C#N)N1[C@H]3CNC(=O)OCC(Cl)(Cl)Cl)N4C)OCO2` (stereo partly drawn), the IC50 in the data set with A-549 [1], in the data set with HT-29 [2], with P-388 [3] and with MEL-28 [4] was 0.13 µM throughout. Also, in “in vitro”, the pIC50 was 6.89.
For `C=CCOc1c(C)c2c(c3c1CC1[C@H]4c5c(cc(C)c(OC)c5OCOC)C[C@@H]([C@H](C#N)N1[C@H]3CN)N4C)OCO2` (stereo partly drawn), the 50% inhibitory concentration (IC50) in the data set on A-549 [1], in the data set on HT-29 [2], in the data set with DU-145 [5] and in the data set on MEL-28 [4] was 1.8 µM each time. The pIC50 in “in vitro” was 5.74.
In the case of `COc1c(C)cc2c(c1O)[C@@H]1C3Cc4c(O)c(C)c5c(c4[C@H](CN4C(=O)c6ccccc6C4=O)N3[C@@H](C#N)[C@H](C2)N1C)OCO5` (stereo partly drawn), the pIC50 in the data set “in vitro” is 9.00.
Take `COC1=C(C)C(=O)C2=C(C1=O)[C@H](CNC(=O)C(C)N=CSNc1ccccc1)N1C(C2)[C@H]2c3c(cc(C)c(OC)c3O)C[C@@H]([C@@H]1C#N)N2C` (stereo partly drawn): the pIC50 in the data set “in vitro” was 7.74.
For `COC1=C(C)C(=O)C2=C3C1=NCC3N1C(C2)[C@H]2c3c(cc(C)c(OC)c3O)C[C@@H]([C@@H]1C#N)N2C` (stereo partly drawn), the IC50 in the data set on A-549 [1], in the data set with HT-29 [2], with P-388 [3] and in the data set with MEL-28 [4] was 2.17 µM each time. In “in vitro”, this molecule had a pIC50 of 5.66.
Consider `COCOc1c(OC)c(C)cc2c1[C@@H]1C3CC4=C(C(=O)C(OC)=C(C)C4=O)[C@H](CNC(C)=O)N3[C@@H](C#N)[C@H](C2)N1C` (stereo partly drawn), for which the IC50 in the data set with A-549 [1], in the data set with HT-29 [2], in the data set with P-388 [3] and with MEL-28 [4] was 0.22 µM each time. In addition, the pIC50 in “in vitro” was 6.66.
Consider `COCOc1c(OC)c(C)cc2c1[C@@H]1C3CC4=C(C(=O)C(O)=C(C)C4=O)[C@H](CNC(C)=O)N3[C@@H](C#N)[C@H](C2)N1C` (stereo partly drawn), for which the pIC50 in “in vitro” was < 4.74.
As for `CCCCCC(=O)N[C@@H](C)C(=O)NC[C@H]1c2c(c(OC(C)=O)c(C)c3c2OCO3)CC2[C@H]3c4c(cc(C)c(OC)c4O)C[C@@H]([C@H](C#N)N21)N3C` (stereo partly drawn), the IC50 in the data set with A-549 [1], in the data set with HT-29 [2], in the data set on DU-145 [5], with P-388 [3] and in the data set with MEL-28 [4] was 0.001 µM each time. This molecule also showed a pIC50 in “in vitro” of 9.00.
Turning to `CCCCCC(=O)N[C@@H](C)C(=O)NC[C@H]1c2c(c(OC(C)=O)c(C)c3c2OCO3)CC2[C@H]3c4c(cc(C)c(OC)c4O)C[C@@H]([C@H](O)N21)N3C` (stereo partly drawn), the IC50 with A-549 [1], with HT-29 [2], in the data set with DU-145 [5], with P-388 [3] and in the data set on MEL-28 [4] was 0.001 µM throughout. The pIC50 in the data set “in vitro” is 9.00.
With `C=CCOc1c(C)c2c(c3c1CC1[C@H]4c5c(cc(C)c(OC)c5OCOC)C[C@@H]([C@H](C#N)N1[C@H]3COC(=O)CCc1ccccc1)N4C)OCO2` (stereo partly drawn), the IC50 in the data set with A-549 [1], in the data set with HT-29 [2], with DU-145 [5], in the data set on P-388 [3] and in the data set with MEL-28 [4] was 0.7 µM throughout. This molecule had a pIC50 in the data set “in vitro” of 6.15.
For the molecule `COC1=C(C)C(=O)C2=C(C1=O)[C@H](CNC(=O)[C@H](C)NC(=O)C(F)(F)F)N1C(C2)[C@H]2c3c(cc(C)c(OC)c3O)C[C@@H]([C@@H]1C#N)N2C` (stereo partly drawn), the IC50 in the data set on A-549 [1], with HT-29 [2], with DU-145 [5], in the data set with P-388 [3] and in the data set on MEL-28 [4] was 0.01 µM throughout. Besides, the pIC50 in “in vitro” was 7.00.
For the molecule `CCCCCC(=O)NC[C@H]1c2c(c(OC(C)=O)c(C)c3c2OCO3)CC2[C@H]3c4c(cc(C)c(OC)c4O)C[C@@H]([C@H](C#N)N21)N3C` (stereo partly drawn) [drawing 120], the pIC50 in the data set with HT-29 [6], in the data set “in vitro”, in the data set on A-549 [7], with MEL-28 [8], in the data set with P-388 [9] and in the data set on DU-145 [10] was 10.00 in each case.
`COc1c(C)cc2c(c1O)[C@@H]1C3Cc4c(OC(C)=O)c(C)c5c(c4[C@H](CNC(=O)CCc4ccccc4)N3[C@@H](O)[C@H](C2)N1C)OCO5` (stereo partly drawn) [drawing 123]: the pIC50 in the data set with HT-29 [6], with A-549 [7], in the data set with MEL-28 [8], in the data set with P-388 [9] and in the data set on DU-145 [10] was 10.00 in each case.
Take `CCC(=O)NC[C@H]1c2c(c(OC(C)=O)c(C)c3c2OCO3)CC2[C@H]3c4c(cc(C)c(OC)c4O)C[C@@H]([C@H](O)N21)N3C` (stereo partly drawn) [drawing 125]: the pIC50 in the data set on HT-29 [6], in the data set on A-549 [7], with MEL-28 [8], with P-388 [9] and in the data set on DU-145 [10] was 10.00 each time.
As to `COc1c(C)cc2c(c1O)[C@@H]1C3Cc4c(OC(C)=O)c(C)c5c(c4[C@H](CNC(=O)[C@H](C)NC(=O)CCc4ccccc4)N3[C@@H](O)[C@H](C2)N1C)OCO5` (stereo partly drawn) [drawing 135], the pIC50 with HT-29 [6], in the data set on A-549 [7], with MEL-28 [8], in the data set on P-388 [9] and with DU-145 [10] was 10.00 each time.
For the molecule `CCC(=O)N[C@@H](C)C(=O)NC[C@H]1c2c(c(OC(C)=O)c(C)c3c2OCO3)CC2[C@H]3c4c(cc(C)c(OC)c4O)C[C@@H]([C@H](O)N21)N3C` (stereo partly drawn) [drawing 138], the pIC50 with HT-29 [6], in the data set on A-549 [7], with MEL-28 [8], with P-388 [9] and in the data set with DU-145 [10] was 10.00 throughout.
Regarding `CCCC(=O)OC[C@H]1c2c(c(OC(C)=O)c(C)c3c2OCO3)CC2[C@H]3c4c(cc(C)c(OC)c4OCOC)C[C@@H]([C@H](C#N)N21)N3C` (stereo partly drawn) [drawing 152], the pIC50 is 9.10 in the data set on HT-29 [6] (human); 9.10 in the data set with A-549 [7] (human); 9.10 with MEL-28 [8] (human); 10.00 in the data set on P-388 [9]; 9.10 in the data set with DU-145 [10] (human).
`CCCC(=O)OC[C@H]1c2c(c(OC(C)=O)c(C)c3c2OCO3)CC2[C@H]3c4c(cc(C)c(OC)c4O)C[C@@H]([C@H](O)N21)N3C` (stereo partly drawn) [drawing 156]: the pIC50 in the data set with HT-29 [6], in the data set with A-549 [7], in the data set on MEL-28 [8], in the data set with P-388 [9] and in the data set with DU-145 [10] was 10.00 in each case.
`COc1c(C)cc2c(c1O)[C@@H]1C3Cc4c(OC(C)=O)c(C)c5c(c4[C@H](COC(=O)/C=C/c4cccc(C(F)(F)F)c4)N3[C@@H](O)[C@H](C2)N1C)OCO5` (stereo partly drawn) [drawing 157]: the pIC50 in the data set on HT-29 [6], with A-549 [7], in the data set on MEL-28 [8], with P-388 [9] and in the data set on DU-145 [10] was 10.00 throughout.
In the case of `COc1c(C)cc2c(c1O)[C@@H]1C3Cc4c(OC(C)=O)c(C)c5c(c4[C@H](COC(=O)CCc4ccccc4)N3[C@@H](O)[C@H](C2)N1C)OCO5` (stereo partly drawn) [drawing 158], the pIC50 with HT-29 [6], in the data set on A-549 [7], in the data set on MEL-28 [8], in the data set on P-388 [9] and in the data set with DU-145 [10] was 10.00 in each case.
